Values of other authors in publication PMC11376147 (Chemical Science, 2024).

Target: T1, DC-SIGN ECD (Homo sapiens, UniProt Q9NNX6)
T1 sequence (Q9NNX6 66-404): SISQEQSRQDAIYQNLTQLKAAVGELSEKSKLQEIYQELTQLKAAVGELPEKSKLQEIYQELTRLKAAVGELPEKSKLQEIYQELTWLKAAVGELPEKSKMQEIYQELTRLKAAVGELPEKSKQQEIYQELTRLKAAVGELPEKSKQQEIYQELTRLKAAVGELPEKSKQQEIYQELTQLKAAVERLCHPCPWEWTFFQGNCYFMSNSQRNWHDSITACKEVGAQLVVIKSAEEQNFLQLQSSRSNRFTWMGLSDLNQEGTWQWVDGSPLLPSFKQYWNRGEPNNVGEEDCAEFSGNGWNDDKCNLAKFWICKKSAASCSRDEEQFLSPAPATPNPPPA
Details: read-out: IC50 DC-SIGN; SPR inhibition, Spike surface; cited from earlier work

OC[C@H]1OC(O)[C@@H](O)[C@@H](O)[C@@H]1O (stereo partly shown) [mannose]
IC50: 3 mM
